Here are results for five compounds from patent publication US20020004518A1, “Method of treating disorders related to protease-activated receptors-induced cell activation” (priority 2000, published 2002).

One data set concerns PARs. Description: Inhibition of platelet aggregation induced by PARs (thrombin-triggered, turbidimetric). The data set is classed as cell-based. As for the experimental part:
A suitable in vitro inhibition assay can be used to preliminarily evaluate a fused pyrazolyl compound's ability to inhibit cell activation induced by PARs, which are pre-activated by thrombin. For example, a platelet suspension in Tyrode's solution can be prepared and incubated with a compound to be tested, thrombin added to trigger platelet aggregation, and the aggregation measured turbidimetrically with a light-transmission aggremometer. In vivo screening can be performed by following procedures well known in the art.
In vitro inhibitory activity of the fused pyrazolyl compounds was preliminarily evaluated by the following method: A platelet suspension in a Tyrode's solution was prepared according to a procedure described by Wu et al., Br. J Pharm., 1995, 116: 1973-1978. The Tyrode's solution had the following composition (mM): NaCl (136.8), KCl (2.8), NaHCO3 (11.9), MgCl2 (1.1), NaH2PO4 (0.33), CaCl2 (1.0), and glucose (11.2). The platelet number in the platelet suspension was adjusted to 4.5×10^8 platelets/mL with the aid of a Coulter Counter (Model ZM). […] Platelet aggregation was measured turbidimetrically with a light-transmission aggremometer. The extent of platelet aggregation was determined at 5 minutes after the addition of thrombin. The percentage of aggregation was calculated by the method described in Teng et al., Biochem. Biophys. […]

The test system of data set [1] is platelet activating factors other than PARs. Nature of the data set: Effect on platelet activating factors other than PARs. The data set is classed as cell-based. To be noted: selectivity versus other platelet activators.

Take `CCN(CC)Cc1ccc(-c2nn(Cc3ccccc3)c3ccccc23)o1` [Example 17, 1-benzyl-3-(5′-diethylaminomethyl-2′-furyl)indazole]: the “inhibitory activity on platelet aggregation” value with PARs (platelet suspension in Tyrode's solution, 3 min preincubation at 37° C., thrombin added, aggregation read at 5 minutes) is given as “much higher activity”.
Usually melting point stands for the temperature, or range, at which the solid turns liquid. Consider `CCOC(=O)c1cccc(-c2nn(Cc3ccccc3)c3ccccc23)c1` [Example 19, 1-benzyl-3-(3′-ethoxycarbonylphenyl)indazole], for which the melting point lay in the range of 85 to 86 °C. The “effect on platelet activating factors other than PARs” value in data set [1] is “little or no effect”. In addition, the “activity relative to several other tested compounds, e.g. 1-benzyl-3-(4′-ethoxycarbonyl)phenyl-indazole” value in the data set with PARs (thrombin-induced platelet aggregation, fold versus other tested compounds) is “at least 10 times”.
`O=C(O)c1ccc(-c2nn(Cc3ccccc3)c3ccccc23)cc1` [Example 20, 1-benzyl-3-(4′-hydroxycarbonylphenyl)indazole] gave a melting point of 205 to 207 °C.
On the same count and under the same terms, for `O=C(O)c1cccc(-c2nn(Cc3ccccc3)c3ccccc23)c1` [Example 21, 1-benzyl-3-(3′-hydroxycarbonylphenyl)indazole] the value was 190 to 192 °C.
Same read-out and setting: the result for `OCc1ccc(-c2nn(Cc3ccccc3)c3ccccc23)cc1` [Example 22, 1-benzyl-3-(4′-hydroxymethylphenyl)indazole] reads 110 to 112 °C.
